EPA's ToxValDB 9.5 (doi:10.2903/j.efsa.2015.4308)

Columns and labels:
[1] = test system: Aphidius rhopalosiphi; assay: LR50; higher = less toxic; details: not reported; mortality
[2] = test system: Typhlodromus pyri; assay: LR50; higher = less toxic; details: not reported; mortality
[3] = test system: Tagia sp.
[4] = test system: Pimephales promelas; details: chronic/long-term; duration: 34 days; growth
[5] = test system: Bibionidae; details: chronic/long-term
[6] = test system: Oncorhynchus mykiss; details: acute; duration: 96 hours; mortality
[7] = test system: Daphnia magna; details: chronic/long-term; duration: 21 days; reproduction
[8] = test system: Folsomia candida; details: chronic/long-term
[9] = test system: Oryctolagus sp.; details: reproduction developmental; body weight
[10] = test system: Rattus norvegicus
[11] = test system: Anas platyrhynchos
[12] = test system: Hypoaspis aculeifer; details: chronic/long-term
[13] = test system: Canidae; details: chronic; duration: 1 years; oral; F; Dog Other; body weight

Q: For `[Br-].[Br-].c1cc[n+]2c(c1)-c1cccc[n+]1CC2` [Diquat dibromide], which LR50 [1] is on record?
A: 3.2 g/ha

Q: And the LR50 [2]?
A: 2.9 g/ha

Q: And the LC50 ([3]; acute, duration: 14 days, mortality)?
A: 94.3 mg/kg

Q: What about the NOEC ([3]; chronic/long-term, duration: 8 weeks) of the same molecule?
A: 37 mg/kg

Q: And the NOEC [4]?
A: 120 µg/L

Q: What about the NOEC ([5]; duration: 20 days) of the same molecule?
A: 100 mg/kg

Q: And the NOEC ([5]; duration: 28 days)?
A: 1270 µg/L

Q: And the LC50 [6]?
A: 6.1 µg/mL

Q: And the NOEC [7]?
A: 125 µg/L

Q: What about the NOEC [8] of the same molecule?
A: 9.38 mg/kg

Q: And the NOAEL [9]?
A: 1 mg/kg-day

Q: And the LD50 ([10]; acute, M, mortality)?
A: 214 mg/kg-day

Q: What about the NOAEL ([10]; chronic, duration: 2 years, ophthalmoscopic examination) of the same molecule?
A: 0.2 mg/kg-day

Q: What about the NOAEL ([10]; reproduction developmental) of the same molecule?
A: 0.2 mg/kg-day

Q: What about the LD50 ([11]; acute, oral, unspecified, mortality) of the same molecule?
A: 71 mg/kg-day

Q: And the NOAEL ([11]; reproductive)?
A: 0.5 mg/kg-day

Q: And the NOEC [12]?
A: 50 mg/kg

Q: And the NOAEL [13]?
A: 0.5 mg/kg-day
